Patent publication US11208412B2 (DAEGU-GYEONGBUK MEDICAL INNOVATION FOUNDATION, priority 2017, dated 2021)

Legend:
Assay in all cases: Kinase selectivity, DiscoverX scanMAX Kinase assay panel (% control)
Type in all cases: binding
[1] = target: T1, kinases of the scanMAX Kinase assay panel (Homo sapiens, UniProt O95382); conditions: ASK2; 1 uM
T1 construct: purchased DiscoverX Co. (contract measurement) scanMAX Kinase assay panel
T1 sequence (O95382 1-1288): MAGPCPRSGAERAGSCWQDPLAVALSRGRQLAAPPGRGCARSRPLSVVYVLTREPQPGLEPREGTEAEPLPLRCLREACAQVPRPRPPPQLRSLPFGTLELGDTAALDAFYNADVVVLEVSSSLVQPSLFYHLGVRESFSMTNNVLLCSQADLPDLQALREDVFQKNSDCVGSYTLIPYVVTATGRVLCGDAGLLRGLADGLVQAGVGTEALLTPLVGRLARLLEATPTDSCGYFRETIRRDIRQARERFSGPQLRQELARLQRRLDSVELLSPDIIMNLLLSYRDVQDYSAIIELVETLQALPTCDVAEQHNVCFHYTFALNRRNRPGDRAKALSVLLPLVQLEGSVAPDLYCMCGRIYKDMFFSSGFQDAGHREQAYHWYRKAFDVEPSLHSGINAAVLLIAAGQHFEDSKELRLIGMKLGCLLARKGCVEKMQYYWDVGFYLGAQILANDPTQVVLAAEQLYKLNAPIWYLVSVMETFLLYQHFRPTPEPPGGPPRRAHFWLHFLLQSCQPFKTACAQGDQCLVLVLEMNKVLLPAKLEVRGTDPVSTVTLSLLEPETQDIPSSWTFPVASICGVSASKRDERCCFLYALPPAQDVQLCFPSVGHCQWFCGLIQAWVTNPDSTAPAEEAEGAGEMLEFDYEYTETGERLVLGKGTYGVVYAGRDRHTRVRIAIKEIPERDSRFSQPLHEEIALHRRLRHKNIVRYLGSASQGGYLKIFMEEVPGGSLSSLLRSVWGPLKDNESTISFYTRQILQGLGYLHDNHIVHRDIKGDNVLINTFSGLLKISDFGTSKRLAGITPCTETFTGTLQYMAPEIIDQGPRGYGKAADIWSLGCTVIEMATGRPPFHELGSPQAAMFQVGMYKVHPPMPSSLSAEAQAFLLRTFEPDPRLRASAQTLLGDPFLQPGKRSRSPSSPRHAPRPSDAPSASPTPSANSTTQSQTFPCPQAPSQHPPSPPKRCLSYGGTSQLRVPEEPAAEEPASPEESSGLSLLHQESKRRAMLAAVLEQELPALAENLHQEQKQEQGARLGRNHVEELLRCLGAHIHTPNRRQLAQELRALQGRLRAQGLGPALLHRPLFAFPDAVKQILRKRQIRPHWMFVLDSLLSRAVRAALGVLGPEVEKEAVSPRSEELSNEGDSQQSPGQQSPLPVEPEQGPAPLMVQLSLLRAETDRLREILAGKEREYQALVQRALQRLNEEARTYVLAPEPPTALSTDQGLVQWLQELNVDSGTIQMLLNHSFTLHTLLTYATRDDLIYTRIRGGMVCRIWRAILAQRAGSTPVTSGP
Procedure, shortened: (§1)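 Compounds were tested at 1 uM (in DMSO) against each panel kinase. % control was calculated as (compound − positive control)/(negative control − positive control)×100, where the positive control gives 0% and DMSO gives 100%. Activity toward a kinase was called at % control <35%.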

[2] = target: T2, kinases of the scanMAX Kinase assay panel (Homo sapiens, UniProt Q9Y2I7); conditions: PIKFYVE; 1 uM
T2 construct: purchased DiscoverX Co. (contract measurement) scanMAX Kinase assay panel
T2 sequence (Q9Y2I7 whole entry): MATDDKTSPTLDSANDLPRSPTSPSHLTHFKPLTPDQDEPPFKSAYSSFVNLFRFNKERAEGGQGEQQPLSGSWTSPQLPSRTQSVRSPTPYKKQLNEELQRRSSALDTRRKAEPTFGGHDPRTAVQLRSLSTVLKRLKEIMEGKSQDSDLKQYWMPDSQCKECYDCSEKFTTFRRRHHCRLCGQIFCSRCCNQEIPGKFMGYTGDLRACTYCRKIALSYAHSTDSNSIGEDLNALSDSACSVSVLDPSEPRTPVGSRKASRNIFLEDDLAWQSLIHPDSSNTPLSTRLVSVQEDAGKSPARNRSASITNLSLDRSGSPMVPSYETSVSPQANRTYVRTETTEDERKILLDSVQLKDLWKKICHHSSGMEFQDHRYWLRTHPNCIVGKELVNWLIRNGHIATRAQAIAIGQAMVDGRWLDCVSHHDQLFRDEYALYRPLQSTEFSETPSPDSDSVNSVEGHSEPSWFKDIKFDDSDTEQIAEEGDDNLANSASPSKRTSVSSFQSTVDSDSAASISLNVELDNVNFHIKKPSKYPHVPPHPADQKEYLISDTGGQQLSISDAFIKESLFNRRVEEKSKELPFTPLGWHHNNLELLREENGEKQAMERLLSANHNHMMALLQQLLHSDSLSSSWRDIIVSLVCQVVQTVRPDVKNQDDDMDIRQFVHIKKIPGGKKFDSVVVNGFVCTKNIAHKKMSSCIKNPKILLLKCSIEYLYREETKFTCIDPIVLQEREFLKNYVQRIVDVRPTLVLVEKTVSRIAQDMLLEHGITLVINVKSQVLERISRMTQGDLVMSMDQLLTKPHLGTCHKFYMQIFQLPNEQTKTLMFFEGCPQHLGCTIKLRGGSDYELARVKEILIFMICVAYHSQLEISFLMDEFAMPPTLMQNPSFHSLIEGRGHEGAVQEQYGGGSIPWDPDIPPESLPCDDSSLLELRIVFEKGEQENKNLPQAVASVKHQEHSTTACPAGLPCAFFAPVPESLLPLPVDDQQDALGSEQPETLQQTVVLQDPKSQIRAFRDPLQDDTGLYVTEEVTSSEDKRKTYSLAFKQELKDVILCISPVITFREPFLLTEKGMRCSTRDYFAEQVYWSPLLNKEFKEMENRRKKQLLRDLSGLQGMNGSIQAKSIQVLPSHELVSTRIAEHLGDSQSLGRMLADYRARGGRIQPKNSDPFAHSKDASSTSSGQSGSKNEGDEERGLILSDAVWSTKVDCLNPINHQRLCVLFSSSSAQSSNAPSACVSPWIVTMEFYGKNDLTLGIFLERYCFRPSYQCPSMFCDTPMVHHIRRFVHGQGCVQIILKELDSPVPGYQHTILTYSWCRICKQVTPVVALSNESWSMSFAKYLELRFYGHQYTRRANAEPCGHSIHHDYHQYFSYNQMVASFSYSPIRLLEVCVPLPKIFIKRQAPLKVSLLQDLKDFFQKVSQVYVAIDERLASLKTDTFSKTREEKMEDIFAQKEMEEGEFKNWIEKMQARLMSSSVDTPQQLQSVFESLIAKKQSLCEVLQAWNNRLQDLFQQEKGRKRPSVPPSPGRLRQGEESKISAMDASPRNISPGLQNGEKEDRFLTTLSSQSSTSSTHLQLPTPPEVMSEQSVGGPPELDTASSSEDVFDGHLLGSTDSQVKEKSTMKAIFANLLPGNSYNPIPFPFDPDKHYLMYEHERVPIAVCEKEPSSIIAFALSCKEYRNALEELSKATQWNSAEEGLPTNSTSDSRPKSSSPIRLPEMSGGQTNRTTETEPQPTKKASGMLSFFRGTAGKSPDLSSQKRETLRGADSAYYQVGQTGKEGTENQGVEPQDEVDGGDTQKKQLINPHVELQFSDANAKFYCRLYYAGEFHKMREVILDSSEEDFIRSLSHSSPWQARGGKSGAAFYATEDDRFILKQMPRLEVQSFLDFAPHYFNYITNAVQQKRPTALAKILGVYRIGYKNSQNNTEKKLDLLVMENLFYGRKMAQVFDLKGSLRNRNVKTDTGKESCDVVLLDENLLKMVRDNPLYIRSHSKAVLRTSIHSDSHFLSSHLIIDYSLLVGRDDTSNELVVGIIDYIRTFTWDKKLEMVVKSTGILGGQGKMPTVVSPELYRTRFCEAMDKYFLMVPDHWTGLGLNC
Procedure, shortened: as §1

[3] = target: T3, kinases of the scanMAX Kinase assay panel (Homo sapiens, UniProt P23443); conditions: kinase S6K1; 1 uM in DMSO
T3 construct: purchased DiscoverX Co. (contract measurement) scanMAX Kinase assay panel
T3 sequence (P23443 whole entry): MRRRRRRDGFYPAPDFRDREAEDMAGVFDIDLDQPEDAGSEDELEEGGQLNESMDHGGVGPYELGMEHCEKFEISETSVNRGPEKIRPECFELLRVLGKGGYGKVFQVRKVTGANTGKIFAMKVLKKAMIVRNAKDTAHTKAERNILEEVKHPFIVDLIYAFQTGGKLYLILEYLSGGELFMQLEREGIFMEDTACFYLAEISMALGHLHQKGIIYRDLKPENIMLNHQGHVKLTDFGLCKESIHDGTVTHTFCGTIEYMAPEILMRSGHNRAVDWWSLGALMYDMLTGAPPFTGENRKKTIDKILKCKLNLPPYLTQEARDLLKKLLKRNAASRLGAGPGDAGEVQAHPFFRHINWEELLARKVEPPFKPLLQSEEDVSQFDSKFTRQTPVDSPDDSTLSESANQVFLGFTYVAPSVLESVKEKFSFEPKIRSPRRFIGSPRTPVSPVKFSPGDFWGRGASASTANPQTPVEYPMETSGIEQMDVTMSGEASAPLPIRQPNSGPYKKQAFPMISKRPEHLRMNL
Procedure, shortened: as §1

[4] = target: T4, kinases of the scanMAX Kinase assay panel (Homo sapiens, UniProt Q8N5S9); conditions: CAMKK1; 1 uM
T4 construct: purchased DiscoverX Co. (contract measurement) scanMAX Kinase assay panel
Procedure, shortened: as §1

[5] = target: T5, kinases of the scanMAX Kinase assay panel (Homo sapiens, UniProt O60331); conditions: PIP5K1C; 1 uM
T5 construct: purchased DiscoverX Co. (contract measurement) scanMAX Kinase assay panel
T5 sequence (O60331 whole entry): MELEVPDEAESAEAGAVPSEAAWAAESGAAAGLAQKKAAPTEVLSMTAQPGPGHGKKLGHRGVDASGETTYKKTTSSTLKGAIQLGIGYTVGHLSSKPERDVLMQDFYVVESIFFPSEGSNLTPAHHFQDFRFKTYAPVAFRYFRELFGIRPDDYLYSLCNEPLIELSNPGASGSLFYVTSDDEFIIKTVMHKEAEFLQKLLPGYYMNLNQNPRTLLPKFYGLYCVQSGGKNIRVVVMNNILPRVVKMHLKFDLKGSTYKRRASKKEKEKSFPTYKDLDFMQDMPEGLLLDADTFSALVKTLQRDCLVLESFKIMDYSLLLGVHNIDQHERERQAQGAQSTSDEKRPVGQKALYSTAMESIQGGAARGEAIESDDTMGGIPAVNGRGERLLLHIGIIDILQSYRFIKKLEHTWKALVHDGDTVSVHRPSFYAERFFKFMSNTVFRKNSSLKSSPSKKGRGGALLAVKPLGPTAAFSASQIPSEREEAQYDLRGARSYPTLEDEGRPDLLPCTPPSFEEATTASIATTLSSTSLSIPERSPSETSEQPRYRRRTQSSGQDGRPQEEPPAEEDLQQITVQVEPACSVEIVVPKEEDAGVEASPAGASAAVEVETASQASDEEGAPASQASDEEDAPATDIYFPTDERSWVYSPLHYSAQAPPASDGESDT
Procedure, shortened: as §1

[6] = target: T6, kinases of the scanMAX Kinase assay panel (Homo sapiens, UniProt Q13237); conditions: PRKG2; 1 uM
T6 construct: purchased DiscoverX Co. (contract measurement) scanMAX Kinase assay panel
T6 sequence (Q13237 1-762): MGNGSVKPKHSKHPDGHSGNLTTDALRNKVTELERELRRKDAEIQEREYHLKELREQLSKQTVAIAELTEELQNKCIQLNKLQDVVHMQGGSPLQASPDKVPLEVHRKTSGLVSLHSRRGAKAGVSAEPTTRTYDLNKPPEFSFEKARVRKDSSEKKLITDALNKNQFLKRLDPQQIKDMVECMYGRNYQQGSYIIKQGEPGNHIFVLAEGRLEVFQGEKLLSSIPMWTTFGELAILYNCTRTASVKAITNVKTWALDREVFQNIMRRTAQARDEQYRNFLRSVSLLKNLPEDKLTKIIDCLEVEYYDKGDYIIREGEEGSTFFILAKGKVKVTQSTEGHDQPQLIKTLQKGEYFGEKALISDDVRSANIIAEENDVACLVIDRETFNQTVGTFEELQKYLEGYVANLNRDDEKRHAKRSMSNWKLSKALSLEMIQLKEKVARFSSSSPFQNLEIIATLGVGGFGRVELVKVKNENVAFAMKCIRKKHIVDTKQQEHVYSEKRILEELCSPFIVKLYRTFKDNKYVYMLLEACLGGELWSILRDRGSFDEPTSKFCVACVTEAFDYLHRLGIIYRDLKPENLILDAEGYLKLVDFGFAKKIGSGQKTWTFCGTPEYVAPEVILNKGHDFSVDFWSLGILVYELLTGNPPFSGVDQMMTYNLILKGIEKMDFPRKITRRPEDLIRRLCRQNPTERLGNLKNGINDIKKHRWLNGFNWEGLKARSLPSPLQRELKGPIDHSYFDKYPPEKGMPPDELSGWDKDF
Procedure, shortened: as §1

[7] = target: T7, kinases of the scanMAX Kinase assay panel (Homo sapiens, UniProt Q13554); conditions: CAMK2B; 1 uM
T7 construct: purchased DiscoverX Co. (contract measurement) scanMAX Kinase assay panel
T7 sequence (Q13554 whole entry): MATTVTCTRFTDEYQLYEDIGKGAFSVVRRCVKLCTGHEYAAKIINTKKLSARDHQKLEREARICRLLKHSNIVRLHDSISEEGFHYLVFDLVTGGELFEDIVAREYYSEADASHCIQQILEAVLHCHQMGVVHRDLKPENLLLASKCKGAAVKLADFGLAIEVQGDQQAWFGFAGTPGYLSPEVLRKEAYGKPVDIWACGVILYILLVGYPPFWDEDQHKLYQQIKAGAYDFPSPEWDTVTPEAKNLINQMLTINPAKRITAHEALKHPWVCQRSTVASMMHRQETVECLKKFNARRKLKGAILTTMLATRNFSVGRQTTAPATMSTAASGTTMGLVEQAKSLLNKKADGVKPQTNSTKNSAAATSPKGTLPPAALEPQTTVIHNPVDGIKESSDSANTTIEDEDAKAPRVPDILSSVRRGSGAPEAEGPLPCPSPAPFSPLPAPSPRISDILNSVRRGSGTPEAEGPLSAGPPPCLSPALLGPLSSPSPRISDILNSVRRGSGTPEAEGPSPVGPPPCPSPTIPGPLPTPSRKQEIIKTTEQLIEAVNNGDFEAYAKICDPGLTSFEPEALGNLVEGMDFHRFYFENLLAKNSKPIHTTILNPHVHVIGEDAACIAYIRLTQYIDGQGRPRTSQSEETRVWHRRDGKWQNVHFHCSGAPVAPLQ
Procedure, shortened: as §1

[8] = target: T8, kinases of the scanMAX Kinase assay panel (Homo sapiens, UniProt P10721, L576P); conditions: KIT(L576P); 1 uM
T8 construct: purchased DiscoverX Co. (contract measurement) scanMAX Kinase assay panel
T8 sequence (P10721 26-976 L576P): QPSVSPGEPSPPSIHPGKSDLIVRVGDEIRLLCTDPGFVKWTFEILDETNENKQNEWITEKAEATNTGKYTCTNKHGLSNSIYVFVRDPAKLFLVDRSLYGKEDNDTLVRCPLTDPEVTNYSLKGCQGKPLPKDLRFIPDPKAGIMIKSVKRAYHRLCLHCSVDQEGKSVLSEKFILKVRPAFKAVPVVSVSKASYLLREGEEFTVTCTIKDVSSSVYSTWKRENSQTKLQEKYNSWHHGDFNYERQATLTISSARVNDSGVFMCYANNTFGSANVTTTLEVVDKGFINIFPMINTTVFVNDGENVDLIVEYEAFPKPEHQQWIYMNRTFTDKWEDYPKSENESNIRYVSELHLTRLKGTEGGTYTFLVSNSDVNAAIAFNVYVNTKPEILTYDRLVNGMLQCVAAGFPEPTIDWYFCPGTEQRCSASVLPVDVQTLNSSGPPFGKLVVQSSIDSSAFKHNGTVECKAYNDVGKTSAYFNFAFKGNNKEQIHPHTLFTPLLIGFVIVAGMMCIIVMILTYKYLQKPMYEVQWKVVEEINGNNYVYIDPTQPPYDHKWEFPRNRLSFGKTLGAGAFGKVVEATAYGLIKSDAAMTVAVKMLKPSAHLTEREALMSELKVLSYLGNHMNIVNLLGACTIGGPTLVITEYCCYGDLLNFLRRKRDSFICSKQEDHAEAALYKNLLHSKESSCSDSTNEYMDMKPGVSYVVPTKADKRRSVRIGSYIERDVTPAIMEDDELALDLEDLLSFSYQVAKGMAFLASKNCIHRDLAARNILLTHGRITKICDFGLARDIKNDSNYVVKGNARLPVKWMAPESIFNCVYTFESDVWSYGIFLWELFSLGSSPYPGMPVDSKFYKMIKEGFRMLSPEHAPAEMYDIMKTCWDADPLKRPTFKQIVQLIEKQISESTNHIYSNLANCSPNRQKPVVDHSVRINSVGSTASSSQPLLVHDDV
Procedure, shortened: as §1

[9] = target: T9, kinases of the scanMAX Kinase assay panel (Homo sapiens, UniProt Q8IY84); conditions: NIM1; 1 uM
T9 construct: purchased DiscoverX Co. (contract measurement) scanMAX Kinase assay panel
Procedure, shortened: as §1

## CCNc1nc(Nc2ccc(C(=O)N3CCC(N4CCOCC4)CC3)cc2OC)nc2[nH]cc(C(F)(F)F)c12 [Example 104, (4-((4-(ethylamino)-5-(trifluoromethyl)-7H-pyrrolo[2,3-d]pyrimidine-2-yl)amino)-3-methoxyphenyl)(4-morpholinopiperidine-1-yl)methanone]
[1]
  remaining binding at 1 µM: 92%
[2]
  remaining binding at 1 µM: 100%
[3]
  remaining binding at 1 µM: 80%
[4]
  remaining binding at 1 µM: 14%
[5]
  remaining binding at 1 µM: 100%
[6]
  remaining binding at 1 µM: 91%
[7]
  remaining binding at 1 µM: 81%
[8]
  remaining binding at 1 µM: 47%
[9]
  remaining binding at 1 µM: 100%

## CC1(Nc2nc(Nc3cnn([C@H]4CCN(C5COC5)C[C@@H]4F)c3Cl)nc3[nH]cc(C#N)c23)CC1 [Example 52, 2-((5-chloro-1-((3S,4S)-3-fluoro-1-(oxetane-3-yl)piperidine-4-yl)-1H-pyrazole-4-yl)amino)((1-methylcyclopropyl)amino)-7H-pyrrolo[2,3-d]pyrimidine-5-carbonitrile]
[1]
  remaining binding at 1 µM: 11%
[2]
  remaining binding at 1 µM: 65%
[3]
  remaining binding at 1 µM: 52%
[4]
  remaining binding at 1 µM: 21%
[5]
  remaining binding at 1 µM: 0%
[6]
  remaining binding at 1 µM: 94%
[7]
  remaining binding at 1 µM: 57%
[8]
  remaining binding at 1 µM: 0%
[9]
  remaining binding at 1 µM: 100%

## CNc1nc(Nc2ccc(C(=O)N3CCOCC3)cc2OC)nc2[nH]cc(C#N)c12 [Example 1, 2-((2-methoxy-4-(morpholine-4-carbonyl)phenyl)amino)-4-(methylamino)-7H-pyrrolo[2,3-d]pyrimidine-5-carbonitrile]
[1]
  remaining binding at 1 µM: 56%
[2]
  remaining binding at 1 µM: 73%
[3]
  remaining binding at 1 µM: 70%
[4]
  remaining binding at 1 µM: 81%
[5]
  remaining binding at 1 µM: 1%
[6]
  remaining binding at 1 µM: 100%
[7]
  remaining binding at 1 µM: 62%
[8]
  remaining binding at 1 µM: 41%
[9]
  remaining binding at 1 µM: 77%
